Data on two compounds can be found in US20260364088A1, “TASL MIMICKING MOLECULES AND APPLICATIONS THEREOF” (CEMM - FORSCHUNGSZENTRUM FÜR MOLEKULARE MEDIZIN GMBH, priority 2022, published 2026).

This assay addresses T1, THP1 dual cell (Homo sapiens, UniProt Q8N697).
T1 construct: R848 (TLR7/8)-stimulated ISRE reporter
The assay can be described thus: THP1 DUAL/ISRE cell reporter assay (R848 stimulated). Format: cell-based. On the procedure: CAL-1, THP1 or human primary cells were incubated with dTASL1 and other identified compounds (or the corresponding volume of DMSO vehicle) for 24 h or 48 h at the indicated concentration and subsequently stimulated with R848 (5 μg/ml) for the indicated time. Supernatant or cells were recovered for ELISA, SDS-PAGE or microscopy-based analysis.
THP1 DUAL cells (1×10^5 cells per 96 well) were incubated with compounds for 24 h or 48 h, and subsequently stimulated for 20 h as indicated. Cell culture supernatant were collected, cleared of residual cells by centrifugation and analyzed for NF-κB and ISRE reporter activity according to the manufacturer's instructions. For experiments in 384-well format, compounds were pre-plated at defined concentrations and THP1 dual cells were added at 800 k/well concentration in […]. After incubation for 24 h or 48 h cells were stimulated with […] of a 25 μg/ml stock of R848 or 0.5 μg/ml Pam3CKS4 5× stocks as indicated for 20 h and detected by directly adding Quanti-Luc Plus (Invivogen) solution to the plates, according to the manufacturer's instructions and without adding stabilizer solution. Quanti-Blue detection was carried out according to the manifacturers instructions, with QB reagent and buffer (Invivogen) dissolved in 30 ml water, instead of the 100 ml used for standard detection.
Based on potency and kinetics, the compound C5 was selected for further characterization (FIG. 2E). C5 is an elongated molecule comprised of an aromatic 2-(4-ethoxyphenyl)-quinoline moiety followed by an amide bond and an aliphatic 2-methyl-1-propylpiperidine (FIG. 2F). To validate the scaffold and explore the chemical space at the aliphatic end of the compound, five analogues and an independently synthesized batch of C5 were obtained. […] Therefore the C5 compound was selected, which was named dTASL1 as its activity leads to TASL degradation, to assess effects on TLR7/8-induced signaling and responses.
The following compounds were assayed for their activity in the degradation assay (THP1 DUAL/ISRE cell reporter assay), as described herein: […]
Background: In a reporter assay the amount or activity of a reporter protein is the signal.

Setting [1] is: 24 h treatment before R848 stimulation, read-out: IC50 24 h.
The mark [2] stands for this setting: 48 h treatment before R848 stimulation, read-out: IC50 48 h.

Each structure is given as a SMILES string. Read-outs that look alike come from different tables or passages of the source.

T1 sequence (Q8N697 whole entry): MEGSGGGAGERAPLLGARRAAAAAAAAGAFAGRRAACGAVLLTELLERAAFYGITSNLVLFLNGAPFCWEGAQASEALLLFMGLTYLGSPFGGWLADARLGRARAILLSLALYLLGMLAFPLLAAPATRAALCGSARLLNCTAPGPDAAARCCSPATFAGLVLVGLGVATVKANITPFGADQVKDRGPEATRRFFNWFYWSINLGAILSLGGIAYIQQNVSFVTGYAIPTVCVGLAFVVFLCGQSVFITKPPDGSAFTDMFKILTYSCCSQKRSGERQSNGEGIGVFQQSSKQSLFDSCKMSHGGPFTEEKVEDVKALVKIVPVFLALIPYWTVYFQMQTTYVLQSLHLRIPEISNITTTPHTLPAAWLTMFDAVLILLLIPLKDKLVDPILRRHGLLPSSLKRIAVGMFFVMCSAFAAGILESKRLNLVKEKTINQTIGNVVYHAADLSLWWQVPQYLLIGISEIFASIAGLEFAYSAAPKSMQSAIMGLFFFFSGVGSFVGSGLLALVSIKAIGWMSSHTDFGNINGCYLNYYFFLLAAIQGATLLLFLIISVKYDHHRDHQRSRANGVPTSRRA

The term IC50 denotes the point on the concentration scale where inhibition reaches its midpoint. Turning to `CCOc1ccc(-c2cc(C(=O)NCCCN3CCCCCC3)c3ccccc3n2)cc1` [dTASL1-a2], the IC50 reads like this: under setting [1], 3.49 µM; under setting [2], 2.96 µM.
For `CCOc1ccc(-c2cc(C(=O)NCCCN3CCCCC3)c3ccccc3n2)cc1` [dTASL1-a4], the IC50 is, setting by setting: under setting [1], 4.16 µM; under setting [2], 2.39 µM.
